Data set [1] has as its target human α2β3γ2 receptor (α2-GABAA receptor) (Homo sapiens (Human), UniProt P18507+P47869). Nature of the data set: Radioligand (3H-flunitrazepam) competition binding assay, BZD site; α2 vs α5 binding selectivity. The note with it: ratio of Ki at α2β3γ2 to Ki at α5β3γ2. The text has this: α, β and γ subunits are essential for the formation of a complete functional GABAA receptor. In this example, HEK293 cell strains stably expressing human α5-GABAA receptor (comprising α5β3γ2 subunit) and α2-GABAA receptor (comprising α2β3γ2 subunit) were constructed and screened, respectively, by liposome transfection method (Felgner, P. L., et al., Proceedings of the National Academy of Sciences, 1987, 84:7413-7417). The specific subunit protein sequences are as follows: α5 subunit (protein sequence can be found in GenBank accession number: NM_000810.3); α2 subunit (protein sequence can be found in GenBank accession number: NM_000807.4); β3 subunit (protein sequence can be found in GenBank accession number: NM_000814.5); γ2 subunit (protein sequence can be found in GenBank accession number: NM_000816.3).
The above cell lines were subcultured. Amplification of α5β3γ2-HEK293 and α2β3γ2-HEK293 cells was used to test the affinity of the compounds to benzodiazepine site (BZD) of the GABAA receptor. During the passage of α5β3γ2-HEK293 cells, some of the suspended cells were spread on a glass slide pretreated with Poly-D-Lysine for electrophysiological testing.
Flunitrazepam is a non-specific reagent that binds to the BZD site efficiently. The affinity of the compounds to the BZD sites of the human α5β3γ2 and α2β3γ2 receptors can be determined by competing the compound with ^3H-flunitrazepam (isotope ^3H-labeled flunitrazepam) for binding to these two receptors.
Membrane preparation: HEK293 cells stably expressing human α5β3γ2 receptor or α2β3γ2 receptor were collected, suspended in 50 mM Tris-HCl buffer (pH=7.4), homogenized on ice by a homogenizer for 20 seconds 10 times, and centrifuged at 4° C., 1000 g for 10 min. The supernatant was collected, and the above steps were repeated. The supernatant was centrifuged (33800 g; centrifuge purchased from Thermo, rotor model: A27-8×50) at 4° C. for 60 min, and the precipitate was resuspended in Tris buffer (50 mM Tris-HCl, 10 mM MgCl2, 0.5 mM EDTA, 10% glycerol). The precipitate was the cell membrane. Protein content was determined by BCA (Bicinchoninic Acid) method (BCA kit from Pierce (Annoron)). The cell membrane was prepared into 1 ml aliquot and stored at −80° C.
Radioligand competition binding assay: the assay was carried out in a 200 μL system (96-well plate from Agilent) with 100 μL of cell membrane. The concentration of ^3H-flunitazepam (from PerkinElmer, lot: NET567250 UC) was 1 nM and the concentration of test compound was in the range 1×10^−5-10^−6 M. Flumazenil (from Tocris; lot: 1318) was used as a control. 1 μL of 2 mM flumazenil (final concentration 10 μM) was added to the Low signal control well (Low control, LC) and 1 μL of DMSO (from Sigma aldrich, lot: 472301) was added to the High signal control well (High control, HC). The final target membrane protein concentration was 5 μg/well. All test compound sample stocks were 10 mM DMSO solutions. The working concentration of the samples is to dilute all samples with DMSO to 0.2 mM, and then perform 4-fold continuous gradient dilution for a total of 8 concentration gradients. The 96-well plate was sealed with a plate sealing membrane and then incubated on a shaker at room temperature for 1 hour. Meanwhile, GF/C filter plate was soaked with a plate soaking buffer (0.3% PEI, polyethyleneimine, purchased from Sigma aldrich, model: P314, stored at 4° C.) for at least 0.5 hours. After completion of binding incubation, the cells were collected with a cell collector onto the GF/C filter plate and washed four times with a plate washing buffer (50 mM Tris-HCl, pH 7.4, stored at 4° C.). […]

The target of data set [2] is α5-GABAA receptor (Homo sapiens (Human), UniProt P18507+P31644). Nature of the data set: Whole-cell patch clamp electrophysiology, inverse regulation activity in α5β3γ2-HEK293 cells. Type of data set: cell-based. The note with it: compound 100 nM; GABA 0.05-0.06 μM (about EC7-8); clamped at −60 mV; read-out: Inverse regulation efficiency to α5-GABAA receptor. The procedure, abridged: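 HEK293 cells expressing α5β3γ2 recorded whole-cell at −60 mV holding potential, GABA 0.05-0.06 μM (about EC7-8) applied, then compound at 100 nM final with GABA. pH 7.4 extracellular, CsCl-based pipette solution. Inverse regulation efficiency = (Itreatment−Igaba)/(Igaba−Iprebaseline)×100%.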
A general note: In patch-clamp work, channel activity is measured electrically.

The target in data set [3] is human α5β3γ2 receptor (α5-GABAA receptor) (Homo sapiens (Human), UniProt P18507+P31644). Nature of the data set: Radioligand (3H-flunitrazepam) competition binding assay, BZD site. The conditions noted are these: 3H-flunitrazepam 1 nM; HEK293 membranes expressing human α5β3γ2. The method in brief: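 Membranes from HEK293 cells stably expressing human α2β3γ2 or α5β3γ2 (5 μg protein/well) incubated 1 h at room temperature with 1 nM ^3H-flunitrazepam and 8-point 4-fold compound dilutions; nonspecific binding defined with 10 μM flumazenil. Filter-bound radioactivity counted; Ki derived from fitted IC50.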

A short description of data set [4]: Thermodynamic solubility in simulated intestinal fluid (FaSSIF). The class given is physicochemical. The conditions noted are these: simulated intestinal fluid (FaSSIF), thermodynamic from solid, 37° C., 1000 rpm. The procedure: 50 mM of phosphate buffer, pH=7.4:0.39 g of NaH2PO4·2H2O, 1.4025 g of Na2HPO4 were weighed, placed into an Erlenmeyer flask, dissolved with the addition of 240 ml of water, homogenously mixed, adjusted to pH 7.4 with 10 M NaOH solution, transferred into a 250 ml volumetric flask and diluted with water to the scale.
Simulated intestinal fluid FaSSIF: 54.76 mg of FaSSIF-V2 (Biorelevant, batch. V2FAS-0619-A, lot. V2FAS01) was weighed, and added to 15 ml of buffer, and after dissolution, the solution was made up to 30 ml and left to stand at room temperature for 1 hour for use.
Waters e2695 HPLC high performance liquid chromatography, Mettler XSE105 analytical balance.
Stock solution containing 10 mM of each test compound was formulated using DMSO, diluted into […] standard curve solution using diluent (ACN:PB buffer with a volume ratio of 50:50), and tested by HPLC to obtain a standard curve of concentration vs peak area of each test compound.
Thermodynamic solubility in simulated intestinal fluid (TS in FaSSIF). About 0.3 mg of each sample (test compound) was weighed, added into 1.5 mL of FaSSIF solution, two samples in parallel, shaken at 1000 rpm and 37° C. for 4 hours, and filtered, 1 mL of primary filtrate was discarded, then 400 μL of subsequent filtrate was taken, and tested by using a high performance liquid chromatograph (UV).

In data set [5] the target is α5-GABAA receptor (Homo sapiens (Human), UniProt P31644). The conditions noted are these: highest concentration of L-655,708; GABA 1 μM; cited from earlier work.

One may read the Ki as the equilibrium dissociation constant of an inhibitor or competing ligand from its target. Low readings indicate a stronger hold on the target, high ones a looser hold on the target. In general, thermodynamic solubility refers to the concentration in solution at equilibrium with solid.

Converted amounts (≈) assume the structure as drawn.

Take `Cc1onc(-c2ccc(F)cc2)c1COc1ccc(-c2nnc3n2CCCOC3)cn1` [Compound 20, 3-(6-((3-(4-fluorophenyl)-5-methylisoxazol-4-yl)methoxy)pyridin-3-yl)-6,7-dihydro-5H,9H-[1,2,4]triazolo[3,4-c][1,4]oxazepane]: in data set [1], the “Selectivity α2 ki/α5 ki” value is reported as 109 folds. In addition, on α5-GABAA receptor [2], the inhibition at 0.1 µM was 45%. In addition, in data set [3], the inhibition constant (Ki) was determined as 11.2 nM.

In the case of `Cc1onc(-c2ccc(F)cc2)c1COc1ccc(-c2nnc3n2CCCOC3)nn1` [Compound 21, 3-(6-((3-(4-fluorophenyl)-5-methylisoxazol-4-yl)methoxy)pyridazin-3-yl)-6,7-dihydro-5H,9H-[1,2,4]triazolo[3,4-c][1,4]oxazepane], the “Selectivity α2 ki/α5 ki” value in data set [1] amounted to 51 folds. Moreover, the inhibition at 0.1 µM at α5-GABAA receptor [2] came out at 46%. In addition, the inhibition constant Ki in data set [3] is 0.91 nM.

For `CC(=O)N1CCn2c(nnc2-c2ccc(OCc3c(-c4ccc(F)cc4)noc3C)nc2)C1` [Compound 30, 1-(3-(6-((3-(4-fluorophenyl)-5-methylisoxazol-4-yl)methoxy)pyridin-3-yl)-5,6-dihydro-[1,2,4]triazolo[4,3-a]pyrazin-7(8H)-yl)ethan-1-one], the thermodynamic solubility at 4 h in data set [4] was 191 µg/mL (≈ 426 µM). The inhibition at 0.1 µM at α5-GABAA receptor [2] was 41%. This molecule also had an inhibition constant (Ki) in data set [3] of 9.86 nM.

`Cc1onc(-c2ccc(F)cc2)c1COc1ccc(-c2nnc3n2CCN(S(C)(=O)=O)C3)cn1` [Compound 31, 3-(4-fluorophenyl)-5-methyl-4-(((5-(7-(methylsulfonyl)-5,6,7,8-tetrahydro-[1,2,4]triazolo[4,3-a]pyrazin-3-yl)pyridin-2-yl)oxy)methyl)isoxazole] came in with a thermodynamic solubility at 4 h in data set [4] of 32.9 µg/mL (≈ 67.8 µM).

On to `Cc1onc(-c2ccc(F)cc2)c1COc1ccc(N2CCn3ccnc3C2)nn1` [Compound 35, 4-(((6-(5,6-dihydroimidazo [1,2-a]pyrazin-7(8H)-yl)pyridazin-3-yl)oxy)methyl)-3-(4-fluorophenyl)-5-methylisoxazole], for which, in data set [1], the “Selectivity α2 ki/α5 ki” value was found to be 35.8 folds. Further, at α5-GABAA receptor [2], the inhibition at 0.1 µM was determined as 49%. The molecule further displayed an inhibitory constant (Ki) in data set [3] of 1.44 nM.

`Cc1onc(-c2ccc(F)cc2)c1COc1ccc(N2CCn3c(C)nnc3C2=O)nn1` [Compound 36, 7-(6-((3-(4-fluorophenyl)-5-methylisoxazol-4-yl)methoxy)pyridazin-3-yl)-3-methyl-6,7-dihydro-[1,2,4]triazolo[4,3-a]pyrazin-8(H)-one]: the “Selectivity α2 ki/α5 ki” value in data set [1] came to 46.9 folds. For the same molecule, the inhibition at 0.1 µM at α5-GABAA receptor [2] was 45%. In data set [3], this molecule yielded a Ki of 3.39 nM.

As to `CCOC(=O)c1ncn2c1[C@@H]1CCCN1C(=O)c1cc(OC)ccc1-2` [L-655,708], the “Inhibition of GABA-induced current” value at α5-GABAA receptor [5] was 15%.

Take `Cc1noc(-c2ccc(OCc3c(-c4ccccc4)noc3C)nc2)n1` [WO2009071476, Example 245, reference compound]: the solubility (thermodynamic) at 4 h in data set [4] was 0.9 µg/mL (≈ 2.58 µM).
